We go through two compounds from US20130095068A1, “AGENT FOR TREATING HCV INFECTION” (priority 2010, published 2013).

Entries after “also recorded” stand apart in the source; their conditions may differ. Some results are limits rather than exact numbers.

Data set [1] concerns genotype 1b HCV auto-replicating subgenomic replicon (luc-ubi-neo/ET replicon cells). As to the kind of experiment: Replicon assay, luciferase activity in luc-ubi-neo/ET HCV subgenome replicon cells. The class given is cell-based, Hepatitis C virus. As to conditions: for EC50: Hepatitis C virus, 72 h, read-out: HCV replication inhibitory activity EC50; for Selectivity IC50/EC50 / Luciferase activity: Test compound alone; for Luciferase activity: 72 hours, percentage of solvent alone. An excerpt:
The inhibitory-effect on HCV replication and the cytotoxicity of a compound of formula (I) of the invention was examined by a replicon assay using HCV subgenome replicon cells.
(§1) The HCV subgenome replicon cells used were luc-ubi-neo/ET replicon cells, having the genotype 1b HCV auto-replicating subgenomic replicon, a luciferase reporter, ubiquitin, a neomycin phosphotransferase coding sequence, and three mutations for cell culturing (Pietschmann, T. et al., J. Virol. 76:4008-4021, 2002). The ET replicon cells were cultured in DMEM containing 10% FBS, 1% penicillin/streptomycin, 1% glutamine, and 250 μg/mL G418 in an incubator at 37° C., 5% CO2. For culturing with a Test compound of formula (I), it was performed under the same conditions in DMEM containing 5% FBS, 1% penicillin/streptomycin and 1% glutamine. The ET replicon cells were cultured in two 96-well plates, at 5000 cell/well, separately. On the following day, the Test compound alone diluting to different concentrations with a maximum concentration of 1.1 μM, was added to one plate, while human recombinant Interferon-α-2b (rIFNα-2b) at a fixed concentration of 0.1 IU/mL was added to another plate with the Test compound, simultaneously. At 72 hours after addition, the luciferase activity indicating amplification of HCV mRNA was measured. The cytotoxicity was measured with a CytoTox-1 Cell Proliferation Assay (Promega Corporation).
The luciferase activities, for the compound of formula (I) alone and for a combination of the compound of formula (I) and rIFNα-2b, were shown in Table 1 as percentage with respect to luciferase activity when using the solvent alone. The HCV replication inhibitory-activity was determined as the concentration which produced 50% inhibition of HCV replicon (EC50), and the cytotoxicity was determined as the concentration which produced 50% reduction in viable cells (IC50), while the selectivity was determined as the value of IC50/EC50; the results are summarized in Table 2.
(Replicon systems follow genome replication, usually without infectious particles.)

Data set [2] in a line: Cytotoxicity, CytoTox-1 Cell Proliferation Assay in ET replicon cells. In kind it is cell-based. The conditions noted are these: human, luc-ubi-neo/ET HCV genotype 1b subgenomic replicon cells; Test compound alone, 50% reduction in viable cells, maximum concentration 1.1 μM. As for the experimental part:
as §1, with “Corporation). […]” for “Corporation).”

Data set [3] relates to HCV subgenomic replicon (LucNeo#2 replicon cells). Description: Replicon assay, intracellular luciferase activity in LucNeo#2 replicon cells. In kind it is cell-based, Hepatitis C virus. The conditions noted are these: for Luciferase activity: 72 hours, percentage of solvent-treated group; for HCV replication inhibitory-activity (in words): LucNeo#2 replicon cells, 3.3 and 10 μM. The text has this:
The inhibitory-effect on HCV replication and the cytotoxicity of a compound of formula (I) of the invention were examined by a replicon assay method using different HCV subgenomic replicon cells from Example 1, specifically LucNeo#2 replicon cells. The LucNeo#2 replicon cells are reporter cells created with the same concept as the luc-ubi-neo/ET replicon cells used in Test Example 1, and are utilized for analysis of the RNA replication mechanism of HCV or anti-HCV drug evaluation, but the gene sequence differs from that of luc-ubi-neo/ET replicon cells (Biochem. Biophys. Res. Commun. 343 (2006) 879-884).
(§2) LucNeo#2 replicon cells cultured to confluency were recovered by trypsin treatment, and were spread on a collagen-coated plate at a density of 20,000 cells/mL. The cell culture was conducted in an incubator at 37° C., 5% CO2, with 10% FCS/DMEM (containing mixed solution of penicillin-streptomycin, G418 and a non-essential amino acid). After 24 hours, the cells were rinsed and a compound of formula (I) was added as Test compound to final concentrations of 3.3 μM or 10 μM. At 72 hours after addition of the Test compound, the cells of one plate were rinsed, the cells were lysed with M-PER, and the intracellular luciferase activity was measured using a Promega kit. An Alamar Blue solution was also added to cells cultured under the same conditions, and the cytotoxicity was examined.
(§3) The intracellular luciferase activity and the Alamar Blue signal for cytotoxicity at 72 hours after Test compound addition were shown in Table 3 as a percentage with respect to the solvent-treated group.

A further data set concerns LucNeo#2 replicon cells. As to the kind of experiment: Cytotoxicity, Alamar Blue in LucNeo#2 replicon cells. The class given is cell-based. As to conditions: 72 hours, percentage of solvent-treated group. How it is done: as §2, §3
The test system of another data set is HCV 1b genotype. Description: Lowering effect on serum HCV RNA levels in HCV-infected human hepatocyte-transplanted mice (PXB mice). In kind it is in vivo, Hepatitis C virus. As to conditions: oral; for Change in serum HCV RNA levels, average: day 14 versus day 0. How it is done:
The lowering effect on serum HCV RNA levels was measured to determine the HCV replication inhibitory-effect of a compound of formula (I) of the invention were determined by measuring the serum HCV RNA levels.
Human hepatocyte-transplanted model mice (PXB mice) were prepared from uPA^+/+/SCID mice as host mice. The uPA^+/+/SCID mice are characterized by a combination of liver damage and serious immune deficiency complications. Commercially available frozen human hepatocytes (BD Biosciences, MA, USA) were grafted by infusion into the spleens of male or female uPA^+/+/SCID mice that had reached a postnatal age of 2 to 4 weeks, to create human hepatocyte-transplanted mice (PXB mice) having at least 70% of the mouse liver parenchymal cells replaced with human hepatocytes. […] HCV 1b genotype-infected patient serum (PhoenixBio) was injected through the orbital socket to a virus titer of 1×10^4 copies/mouse as measured by RT-PCR (Life Technologies Corporation, Carlsbad, USA), for the HCV infection. […] […] The number of mice per group was five. The solvent alone was used as a negative control. Administration was done once per day for 14 consecutive days. With the initial administration as day 0, blood was collected on day 0, 1, 3, 7, 10, 14, 17 and 21, and the serum HCV RNA levels were measured.
The percent change of blood HCV RNA levels in 14 days, which was 24 hours after final dosing (13 day), from those in day 0, which was predose, was calculated for each individual.

[4] abbreviates: used in combination with rIFNα-2b.

Broadly, the EC50 is the concentration giving half of the maximal effect. Broadly, the IC50 is the concentration at which inhibition is half-maximal.

In the case of `COc1cc(/C=C2\CC[C@H]3COC[C@@H](c4cc(F)c(F)c(F)c4)N3C2=O)ccc1-n1cnc(C)c1` [Test compound B, (E)-(4R,9aS)-7-[3-methoxy-4-(4-methyl-1H-imidazol-1-yl)benzylidene]-4-(3,4,5-trifluorophenyl)hexahydropyrido[2,1-c][1,4]oxazin-6-one], the EC50 in data set [1] came out at 310 nM. Also, the “Selectivity IC50/EC50” value in data set [1] is recorded as over 3.55. Further, the Luciferase activity in data set [1] (0.001 μM) came out at 72%; in data set [1] (0.003 μM), 73%; in data set [1] (0.03 μM), 62%; in data set [1] (0.11 μM), 68%; in data set [1] (0.35 μM), 48%; in data set [1] (1.1 μM) it was 30%. The Luciferase activity in data set [3] (3.3 μM) came out at 50.30%; in data set [3] (10 μM), 27.80%. For the same compound, the figures for the “HCV replication inhibitory-activity (in words)” value in data set [1] (Test compound used alone), in data set [1] (setting [4]) and in data set [3] were “approximately dose-dependent HCV replication inhibitory-activity; also recorded: potent HCV replication inhibitory-activity at lower concentrations than the concentrations for the cytotoxicity”, “more potent reduction of HCV replication with dose-dependent manner; also recorded: even more potent HCV replication inhibitory-activity at lower concentrations than the concentrations for the cytotoxicity” and “potent HCV replication inhibitory-activity by reducing the luciferase activity in a dose-dependent manner”, respectively. For the same compound, the IC50 at 72 h in data set [2] is over 1100 nM. The “Cytotoxicity (Alamar Blue signal)” value in the data set on LucNeo#2 replicon cells (3.3 μM) was 101.00%; in the data set on LucNeo#2 replicon cells (10 μM), 100.75%.
Turning to `COc1cc(/C=C2\CCCN([C@@H](C)c3ccc(F)cc3)C2=O)ccc1-n1cnc(C)c1` [Test compound A, (E)-1-[(1S)-1-(4-fluorophenyl)ethyl]-3-[3-methoxy-4-(4-methyl-1H-imidazol-1-yl)benzylidene]piperidin-2-one], in data set [1], the EC50 was 360 nM. Besides, the “Selectivity IC50/EC50” value in data set [1] was over 3.06. Besides, the Luciferase activity in data set [1] (0.001 μM) is recorded as 87%; in data set [1] (0.003 μM) it was 89%; in data set [1] (0.03 μM), 87%; in data set [1] (0.11 μM), 89%; in data set [1] (0.35 μM), 51%; in data set [1] (1.1 μM), 21%. Further, the Luciferase activity is on record as 116.60% in data set [3] (3.3 μM) and 42.80% in data set [3] (10 μM). Further, the “HCV replication inhibitory-activity (in words)” value in data set [1] (Test compound used alone) is listed as “approximately dose-dependent HCV replication inhibitory-activity; also recorded: potent HCV replication inhibitory-activity at lower concentrations than the concentrations for the cytotoxicity”; in data set [1] (setting [4]) it was “more potent reduction of HCV replication with dose-dependent manner; also recorded: even more potent HCV replication inhibitory-activity at lower concentrations than the concentrations for the cytotoxicity”; in data set [3] it was “potent HCV replication inhibitory-activity by reducing the luciferase activity in a dose-dependent manner”. Also, the 50% inhibitory concentration (IC50) at 72 h in data set [2] was over 1100 nM. Further, the results for the “Cytotoxicity (Alamar Blue signal)” value in the data set on LucNeo#2 replicon cells (3.3 μM) and with LucNeo#2 replicon cells (10 μM) were 100.00% and 101.50%, respectively. For the same compound, the results for the “Change in serum HCV RNA levels, average” value with HCV 1b genotype (10 mg/kg/day once per day for 14 days), in the data set with HCV 1b genotype (30 mg/kg/day once per day for 14 days) and with HCV 1b genotype (100 mg/kg/day once per day for 14 days) were 73.0%, 50.4% and 32.6%, respectively. In addition, the “Serum HCV RNA level (in words)” value with HCV 1b genotype (14 days) is on record as “dose-dependent reduction in serum HCV RNA level”.
